Results: US11078232B2, “Preparation and use of molecular site targeted and activated kinase inhibitor” (Yafei Shanghai Biology Medicine Science & Technology Co. …, priority 2017, dated 2021)
Read-outs that look alike come from different tables or passages of the source. Residues, ends and D or L forms follow the SMILES beside them. *: point of attachment. Doxorubicin(3'-N) = COc1cccc2c1C(=O)c1c(O)c3c(c(O)c1C2=O)C[C@@](O)(C(=O)CO)C[C@@H]3O[C@H]1C[C@H](N*)[C@H](O)[C@H](C)O1; X1 = CN(CCNC(=O)c1cc(Oc2ccc(NC(=O)Nc3ccc(Cl)c(C(F)(F)F)c3)cc2)ccn1)*; Hexanoyl(6-maleimido) = O=C1C=CC(=O)N1CCCCCC(=O)*

Assays:
CT26 tumor cells [1] = assay: CT26 immunotherapy model (Example 15); type: in vivo, mice
Method: (§1) 1) CT26 tumor cells were purchased from ATCC, and the cells were cultured using a 10% fetal bovine serum DMEM medium at 37° C., 5% CO2. The cells were passaged every 3 days and the cells were used within 15 generations.
(§2) 2) Tumor production: 10^6 live CT26 tumor cells were injected subcutaneously into the back of tumor-immunized […], and treatment was started when the tumor grew to about 0.3-0.4 cm. The tumor size (mm^3) of the mice was recorded and compared with the solvent control group. The tumor inhibition rate on day 42 was calculated in the solvent control group.
(§3) 3) Treatment process: IV injection is used, and the drug is used at a dose of ⅓ MTD once a week Immunosuppressive IV injection treatment once a week for a total of 6 weeks of treatment.
(§4) 4) The cure rate of 10 in each group was counted. After 50 days, the cured mice and wild groups were inoculated […] to detect recurrence.

BALB/C mouse = assay: MTD (maximum tolerated dose) acute toxicity in mice; type: in vivo; details: intravenous; for Number of deaths: 10 mice per group; for Death dose: observed 17 days
Text: (§5) Test purpose: to investigate the acute toxicity of highly activated compounds by targeted site molecules of the invention by measuring the MTD (maximum tolerated dose) experiment in mice.
(§6) The injections of each drug and the control drug were uniformly dissolved using water for injection, and diluted to the corresponding dose with physiological saline during the test.
(§7) Methods and results: […] BALB/C mice, weighing 19-21 g, were randomly divided into 10 groups, with 10 mice in each group. […] A control test of the saline group and the adriamycin group injection (commercially available, Beijing Yue kang) was carried out, and the injection volume of each mouse was 0.2 ml. […] On the D3, D5, and D14, blood samples were taken for whole blood count.

D121 lung cancer cells = assay: D121 lung cancer immunotherapy model
Method: (1) D121 lung cancer cells purchased from ATCC were cultured in DMEM medium containing 10% fetal bovine serum at 37° C. and 5% CO2, and the cells were digested with EDTA trypsin according to routine use, and passed two to three times a week for placement.
(2) Animals: C57 BALB/C mice, 6-8 weeks old, female, weighing about 18-22 g, purchased from Shanghai SLAC Laboratory Animal Co., Ltd.
3) Immunization: Mice were intraperitoneally injected with 100 μL of 5×10^5 D121 lung cancer cells that died by repeated freeze-thaw cycles, and immunized 3 times with an interval of 2 weeks.
4) Cell seeding: Collect the tumor cells in logarithmic growth phase, adjust the D121 cell concentration to (1×10^7/ml) with DMEM basal medium, 0.1 ml of the cell suspension was inoculated to the right side of each mouse subcutaneously with a 1 ml syringe. […] Tumor volume was observed and measured, and the average tumor volume reached 100-200 mm^3 about 7 days after inoculation, that is, tumor cell-bearing mice were grouped and administered. The immunized group in Table 9 was immunized with D121 lung cancer cells, and the D121 dead tumor cell immunized group was injected with physiological saline as a control.
The immunosuppressive regulatory point protein Anti-PD-L1 antibody was injected twice a week. A total of two weeks.
6) Experimental observation: During the whole experiment, the use and observation of experimental animals were carried out in accordance with the regulations of AAALAC. The experimental animals were observed daily after inoculation of tumor cells, and their onset and death were recorded. During the routine experiment, all experimental animals were monitored and recorded for behavior, feeding, water intake, weight change, hair shine and other abnormalities.
(7) Analysis of tumor CD8+ T cells (T lymphocyte subsets). Tumor tissues were ground and single cancer cells were isolated by filtration using 40 μm Nylon cell strainer, lysed twice with blood cell lysis buffer for 20 min, washed twice with 1% BSA-PBS buffer, centrifuged, and resuspended, and then the cells were counted again. 1×10^5 cells were incubated with leukocyte co-antigen CD45-PE and CD8-FITC-labeled antibody for 1 hour at room temperature in the dark, and then analyzed the proportion of T lymphocyte antigen (CD8) in leukocyte common antigen (CD45)-positive cells by flow cytometry.

CT26 tumor cells [2] = assay: CT26 treatment model (Example 17); type: in vivo, mice; details: CT26 model as in Example 15
Method: as §1, §2, §3, §4
The CT26 immunotherapy model was constructed as in Example 15, and the pharmacodynamic and immunotherapeutic effects of the compounds S4-S6, S9-S12 and S15-S18 in the CT26 treatment model were tested.

[3] = MTD (maximum tolerated dose) acute toxicity in mice; type: in vivo, mouse; details: mouse, in vivo, BALB/C mice, intravenous, observed 17 days; for MTD at 17 days: female
Text: as §5, §6, §7

[4] = Solid stability, 60° C. for 10 days in the dark (HPLC); type: physicochemical
Method: The test was carried out by leaving it at 60° C. for 10 days in the dark. The ratio of the change in the content of the compound to the compound at time 0 was measured by HPLC, and the stability value (%) was calculated.

[5] = solid, 60° C., 10 days, dark, content versus time 0

For `COc1cccc2c1C(=O)c1c(O)c3c(c(O)c1C2=O)C[C@@](O)(C(=O)CO)C[C@@H]3O[C@H]1C[C@H](N)[C@H](O)[C@H](C)O1` [Adriamycin, reference compound], the Cure rate % (CT26 tumor cells [1]; 10 in each group) was 0%, the Number of cures (CT26 tumor cells [1]; 10 in each group) was 0 and the “Tumor inhibition rate % (Day 42)” value (CT26 tumor cells [1]; IV ⅓ MTD once a week, 6 weeks) was 24.5%. The Number of deaths (BALB/C mouse) was 3, the “Death dose” value (BALB/C mouse) was 10 mg/kg and the “effect on T cells” value (D121 lung cancer cells; flow cytometry, discussion of Table 6) was “inhibited T cells”. The “Tumor inhibition rate/% (week 7)” value (D121 lung cancer cells; single agent, i.v. ⅙ MTD once a week for 4 weeks) was 14.6%, the “CD8: CD45 (%)” value (D121 lung cancer cells; single agent, tumor CD8+ T cells among CD45-positive cells, flow cytometry) was 5.4% and the “CD8: CD45 (%)” value (CT26 tumor cells [2]) was 6.4%. For the same compound, the “Number of animals cured” value (CT26 tumor cells [2]) was 0 and the “Tumor inhibition rate/% (at week 7)” value (CT26 tumor cells [2]) was 14.6%.

With `CC(C)C[C@H](NC(=O)[C@H](CC(N)=O)NC(=O)[C@H](C)NC(=O)[C@H](C)N)C(=O)N(C)CCNC(=O)c1cc(Oc2ccc(NC(=O)Nc3ccc(Cl)c(C(F)(F)F)c3)cc2)ccn1` [Compound C1, AANL-Compound a, reference compound] (H-AANL-X1) the Number of deaths (BALB/C mouse) was 1, the “Death dose” value (BALB/C mouse) was 80 mg/kg and the MTD at 17 days [3] was 65 mg/kg. The “Stability verdict (stable / unstable)” value ([4]; solid, 60° C., 10 days, dark) was “stable” and the “Stability(%)” value [4, 5] was 96.8%.

With `C[C@H](N)C(=O)N[C@@H](C)C(=O)N[C@@H](CC(N)=O)C(=O)Nc1ccc(COC(=O)N(C)CCNC(=O)c2cc(Oc3ccc(NC(=O)Nc4ccc(Cl)c(C(F)(F)F)c4)cc3)ccn2)cc1` [Compound C2, AAN-PABC-Compound a, reference compound] the Number of deaths (BALB/C mouse) was 2, the “Death dose” value (BALB/C mouse) was 70 mg/kg and the MTD at 17 days [3] was 60 mg/kg. For the same compound, the “Stability verdict (stable / unstable)” value ([4]; solid, 60° C., 10 days, dark) was “unstable” and the “Stability(%)” value [4, 5] was 89.4%.

With `COc1cccc2c1C(=O)c1c(O)c3c(c(O)c1C2=O)C[C@@](O)(C(=O)CO)C[C@@H]3O[C@H]1C[C@H](NC(=O)[C@H](CC(C)C)NC(=O)[C@H](CC(N)=O)NC(=O)[C@H](C)NC(=O)[C@H](C)NC(=O)CCCCCN2C(=O)C=CC2=O)[C@H](O)[C@H](C)O1` [Compound C11, EMC-AANL-Adriamycin, reference compound] ({Hexanoyl(6-maleimido)}-AANL-{Doxorubicin(3'-N)}) the Number of deaths (BALB/C mouse) was 2, the “Death dose” value (BALB/C mouse) was 120 mg/kg and the MTD at 17 days [3] was 110 mg/kg. The “Stability verdict (stable / unstable)” value [4] was 96.5, stable and the “Stability(%)” value [4] was 96.5, stable %.

In the case of `COc1cccc2c1C(=O)c1c(O)c3c(c(O)c1C2=O)C[C@](O)(C(=O)CO)CC3OC1C[C@H](NC(=O)OCc2ccc(NC(=O)C(CC(N)=O)NC(=O)C(C)NC(=O)C(NC(=O)[C@H](O)[C@H](O)[C@@H](O[C@@H]3O[C@H](CO)[C@H](O)[C@H](O)[C@H]3O)[C@H](O)CO)C(C)C)cc2)[C@H](O)[C@H](C)O1` (stereo partly shown) [Compound S9], the Number of deaths (BALB/C mouse) is reported as 2, the “Death dose” value (BALB/C mouse) is reported as 120 mg/kg and the MTD at 17 days [3] is reported as 100 mg/kg. For the same compound, the “CD8: CD45 (%)” value (CT26 tumor cells [2]) was 13.8%, the “Number of animals cured” value (CT26 tumor cells [2]) was 3 and the “Recurrence rate/% (at week 10)” value (CT26 tumor cells [2]) was 0%. For the same compound, the “Tumor inhibition rate/% (at week 7)” value (CT26 tumor cells [2]) was 66.7%.

For `CC(NC(=O)C(NC(=O)[C@H](O)[C@H](O)[C@@H](O[C@@H]1O[C@H](CO)[C@H](O)[C@H](O)[C@H]1O)[C@H](O)CO)C(C)C)C(=O)NC(CC(N)=O)C(=O)Nc1ccc(COC(=O)Nc2nccc(-c3sc(C(C)(C)C)nc3-c3cccc(NS(=O)(=O)c4c(F)cccc4F)c3F)n2)cc1` (stereo partly shown) [Compound S10], the Number of deaths (BALB/C mouse) was 1, the “Death dose” value (BALB/C mouse) was 320 mg/kg and the MTD at 17 days [3] was 310 mg/kg. For the same compound, the “CD8: CD45 (%)” value (CT26 tumor cells [2]) was 15.9%, the “Number of animals cured” value (CT26 tumor cells [2]) was 2 and the “Recurrence rate/% (at week 10)” value (CT26 tumor cells [2]) was 0%. For the same compound, the “Tumor inhibition rate/% (at week 7)” value (CT26 tumor cells [2]) was 76.7%.

In the case of `CC(NC(=O)C(NC(=O)[C@H](O)[C@H](O)[C@@H](O[C@@H]1O[C@H](CO)[C@H](O)[C@H](O)[C@H]1O)[C@H](O)CO)C(C)C)C(=O)NC(CC(N)=O)C(=O)Nc1ccc(COC(=O)Nc2c(-c3nc4ccc(N5CCN(C)CC5)cc4[nH]3)c(=O)[nH]c3cccc(F)c23)cc1` (stereo partly shown) [Compound S11], the Number of deaths (BALB/C mouse) is reported as 2, the “Death dose” value (BALB/C mouse) is reported as 330 mg/kg and the MTD at 17 days [3] is reported as 300 mg/kg. The “CD8: CD45 (%)” value (CT26 tumor cells [2]) was 15.1%, the “Number of animals cured” value (CT26 tumor cells [2]) was 2 and the “Recurrence rate/% (at week 10)” value (CT26 tumor cells [2]) was 0%. The “Tumor inhibition rate/% (at week 7)” value (CT26 tumor cells [2]) was 69.3%.

With `CC(NC(=O)C(NC(=O)[C@H](O)[C@H](O)[C@@H](O[C@@H]1O[C@H](CO)[C@H](O)[C@H](O)[C@H]1O)[C@H](O)CO)C(C)C)C(=O)NC(CC(N)=O)C(=O)Nc1ccc(COC(=O)N2CC(C)(C)c3ccc(NC(=O)c4cccnc4NCc4ccncc4)cc32)cc1` (stereo partly shown) [Compound S12] the Number of deaths (BALB/C mouse) was 1, the “Death dose” value (BALB/C mouse) was 300 mg/kg and the MTD at 17 days [3] was 290 mg/kg. For the same compound, the “CD8: CD45 (%)” value (CT26 tumor cells [2]) was 10.8%, the “Number of animals cured” value (CT26 tumor cells [2]) was 1 and the “Recurrence rate/% (at week 10)” value (CT26 tumor cells [2]) was 0%. For the same compound, the “Tumor inhibition rate/% (at week 7)” value (CT26 tumor cells [2]) was 55.5%.

In the case of `COc1cccc2c1C(=O)c1c(O)c3c(c(O)c1C2=O)C[C@](O)(C(=O)CO)CC3OC1C[C@H](NC(=O)OCc2ccc(NC(=O)C(CC(N)=O)NC(=O)C(C)NC(=O)C(NC(=O)[C@H](O)[C@H](O)[C@@H](O[C@@H]3O[C@H](CO)[C@H](O)[C@H](O)[C@H]3O)[C@H](O)CO)C(C)O)cc2)[C@H](O)[C@H](C)O1` (stereo partly shown) [Compound S15], the Number of deaths (BALB/C mouse) is reported as 1, the “Death dose” value (BALB/C mouse) is reported as 100 mg/kg and the MTD at 17 days [3] is reported as 90 mg/kg. The “CD8: CD45 (%)” value (CT26 tumor cells [2]) was 15.3%, the “Number of animals cured” value (CT26 tumor cells [2]) was 1 and the “Recurrence rate/% (at week 10)” value (CT26 tumor cells [2]) was 0%. For the same compound, the “Tumor inhibition rate/% (at week 7)” value (CT26 tumor cells [2]) was 70.2%.

In the case of `C[C@H](NC(=O)[C@@H](NC(=O)[C@H](O)[C@@H](O)[C@H](O[C@@H]1O[C@H](CO)[C@H](O)[C@H](O)[C@H]1O)[C@H](O)CO)[C@@H](C)O)C(=O)N[C@@H](CC(N)=O)C(=O)Nc1ccc(COC(=O)Nc2nccc(-c3sc(C(C)(C)C)nc3-c3cccc(NS(=O)(=O)c4c(F)cccc4F)c3F)n2)cc1` [Compound S16], the Number of deaths (BALB/C mouse) is reported as 2, the “Death dose” value (BALB/C mouse) is reported as 300 mg/kg and the MTD [3] is reported as 290 mg/kg. The “CD8: CD45 (%)” value (CT26 tumor cells [2]) was 15.5%, the “Number of animals cured” value (CT26 tumor cells [2]) was 2 and the “Recurrence rate/% (at week 10)” value (CT26 tumor cells [2]) was 0%. For the same compound, the “Tumor inhibition rate/% (at week 7)” value (CT26 tumor cells [2]) was 71.6%.

For `CC(NC(=O)C(NC(=O)[C@H](O)[C@H](O)[C@@H](O[C@@H]1O[C@H](CO)[C@H](O)[C@H](O)[C@H]1O)[C@H](O)CO)C(C)O)C(=O)NC(CC(N)=O)C(=O)Nc1ccc(COC(=O)Nc2c(-c3nc4ccc(N5CCN(C)CC5)cc4[nH]3)c(=O)[nH]c3cccc(F)c23)cc1` (stereo partly shown) [Compound S17], the Number of deaths (BALB/C mouse) was 1, the “Death dose” value (BALB/C mouse) was 310 mg/kg and the MTD at 17 days [3] was 290 mg/kg. The “CD8: CD45 (%)” value (CT26 tumor cells [2]) was 16.2%, the “Number of animals cured” value (CT26 tumor cells [2]) was 1 and the “Recurrence rate/% (at week 10)” value (CT26 tumor cells [2]) was 0%. For the same compound, the “Tumor inhibition rate/% (at week 7)” value (CT26 tumor cells [2]) was 70.9%.

In the case of `CC(NC(=O)C(NC(=O)[C@H](O)[C@H](O)[C@@H](O[C@@H]1O[C@H](CO)[C@H](O)[C@H](O)[C@H]1O)[C@H](O)CO)C(C)O)C(=O)NC(CC(N)=O)C(=O)Nc1ccc(COC(=O)N2CC(C)(C)c3ccc(NC(=O)c4cccnc4NCc4ccncc4)cc32)cc1` (stereo partly shown) [Compound S18], the Number of deaths (BALB/C mouse) is reported as 2, the “Death dose” value (BALB/C mouse) is reported as 290 mg/kg and the MTD at 17 days [3] is reported as 280 mg/kg. For the same compound, the “CD8: CD45 (%)” value (CT26 tumor cells [2]) was 15.6%, the “Number of animals cured” value (CT26 tumor cells [2]) was 2 and the “Recurrence rate/% (at week 10)” value (CT26 tumor cells [2]) was 0%. For the same compound, the “Tumor inhibition rate/% (at week 7)” value (CT26 tumor cells [2]) was 71.7%.
